Measurements: patent US7132546B2, “Aniline derivatives or salts thereof and cytokine production inhibitors containing the same” (Ishihara Sangyo Kaisha, Ltd., priority 2000, dated 2006)

What was measured:
[1] = test system: interleukin 5 (IL-5) production; assay: Cytokine production inhibitory effect: IL-5 production by murine spleen cells treated with anti-mouse CD3 antibody and IL-2 (ELISA); type: cell-based, Balb/c mice; settings: anti-CD3 antibody + IL-2, 40 to 48 hours, read-out: IL-5 production inhibitory ratio (%); for inhibition at 100 ppm: test compound 100 ppm
Method: (§1) Murine spleen cells were treated with anti-mouse CD3 antibody and IL-2 to induce cytokine production. The test compounds were added to the cytokine production system to evaluate their inhibitory effect. Namely, anti-mouse CD3 antibody adjusted to from 10 to 20 μg/ml with borate buffered physiological saline (pH 8.5) was pipetted into a 96-well cell culture plate in an amount of 50 μl/well and left to stand at 4° C. for 18 hours. The unreacted solution was removed, washing with Hank's buffer solution was carried out once, and IL-2 adjusted to 10 ng/ml with a RPMI liquid containing 10% fetal bovine serum (FCS) was pipetted in an amount of 50 μl/well. For the negative control group, a solution alone without anti-CD3 antibody nor IL-2 was applied. Then, the diluted solution of each of the test compounds (concentration: 100 ppm unless otherwise specified) was pipetted in an amount of 50 μl/well, and a cell suspension of 1×10^7 cells/ml, prepared from spleen of Balb/c mice (female, 7 to 10 week old) was pipetted thereinto in an amount of 100 μl/well. After cultivation in an incubator (37° C., 5% carbon dioxide gas) for from 40 to 48 hours, the culture supernatant was recovered to measure the cytokine production amount by ELISA method.
(§2) With respect to interleukin 5 (IL-5) as a typical Th2 type cytokine and interferon γ (IFN-γ) as a typical Th1 type cytokine, measurements were carried out by the following methods, respectively. Namely, quantitative determination of IL-5 was carried out by the following ELISA method. First, rat anti-mouse IL-5 antibody (Endogen Code No. MM-550C) as a primary antibody was diluted with carbonate buffer solution (pH 9.5) to 1 μg/ml, and spread in a 96 well plate (IWAKI, Code No. 3860-096) in an amount of 50 μl/well for coating at 4° C. overnight (16 to 24 hours). Then, the plate was subjected to blocking at 37° C. for 2 hours by phosphate buffered physiological saline containing 10% FCS (pH 7.2) (blocking buffer solution) (250 μl/well). The plate was washed with PBS (washing buffer) containing 0.05% Tween 20 (Nacalai Tesque, Code No. 281-51) four times, and a diluted liquid of the culture supernatant was spread in an amount of 50 μl/well, followed by incubation at room temperature for 1 hour. For preparation of a standard line, recombinant mouse IL-5 (R&D systems, Code No. 405-ML) was employed. The plate was washed with a washing buffer four times, and biotin-labeled rat anti-mouse IL-5 antibody (Pharmingen, Code No. 18062D) as a secondary antibody diluted to 0.5 μg/ml with a blocking buffer containing 0.05% Tween 20 was added thereto (50 μl/well), followed by incubation at room temperature for 1 hour. The plate was washed with a washing buffer four times, strept avidin-labeled peroxidase (ProZyme, Code No. CJ30H001) diluted 800 times with a blocking buffer containing 0.05% Tween 20 was added thereto (50 μl/well), followed by reaction at room temperature for 15 minutes. The plate was washed with a washing buffer four times, and a […] substrate solution (SIGMA, Code No. T-8665) was added thereto in an amount of 100 μl/well for color developing for from 10 to 20 minutes. A 1M sulfuric acid solution was added thereto in an amount of 100 μl/well to terminate the reaction, and absorption (wavelength 450 nm) was measured by means of micro plate reader (SPECTRA max, Wako Pure Chemicals Industries, Ltd.). Quantitative determination of IFN-γ was carried out in the same manner as the measurement of IL-5, employing rat anti-mouse IFN-γ antibody (Pharmingen, Code No. 18181D) and biotin labeled rat anti-mouse IFN-γ antibody (Pharmingen, Code NO. 18112D), as a primary antibody and a secondary antibody, respectively. For preparation of a standard line, recombinant mouse IFN-γ (GENZYME, Code No. 3485) was employed. The experiment was carried out in duplicate, and the average of the cytokine production amount was obtained. […]

[2] = test system: interferon γ (IFN-γ) production; assay: Cytokine production inhibitory effect: IFN-γ production by murine spleen cells treated with anti-mouse CD3 antibody and IL-2 (ELISA); type: cell-based, Balb/c mice; settings: anti-CD3 antibody + IL-2, 40 to 48 hours, read-out: IFN-γ production inhibitory ratio (%); for inhibition at 100 ppm: test compound 100 ppm
Method: as §1, §2

Compound	inhibition at 100 ppm [1]	inhibition at 100 ppm [2]	melting point	inhibition at 10 ppm ([1]; test compound 10 ppm)	inhibition at 10 ppm ([2]; test compound 10 ppm)
O=CNc1cccc(C(=O)Nc2ccc(Oc3ccc(C(F)(F)F)cn3)c(Cl)c2)c1O [compound 17]	100%	100%	159 to 161 °C	–	–
N#Cc1ccc(Cl)c(C(=O)Nc2ccc(Sc3ncc(C(F)(F)F)cc3Cl)cc2)c1 [compound 87]	100%	100%	229 to 231 °C	–	–
O=C(Nc1ccc(OC23CC4CC(CC(C4)C2)C3)nc1)c1cc([N+](=O)[O-])ccc1Cl [Compound No. 123, N-(2-(1-adamantyloxy)-5-pyridyl)-2-chloro-5-nitrobenzamide]	100%	100%	98 to 105 °C	–	–
Cc1cc(Oc2ncc(C(F)(F)F)cc2Cl)c(C)cc1NC(=O)c1cc([N+](=O)[O-])ccc1Cl [compound 105]	55%	25%	296 to 298 °C	–	–
COc1cccc(C(=O)Nc2ccc(Oc3ccc(C(F)(F)F)cn3)c(Cl)c2)c1 [Compound No. 10]	100%	100%	103 to 105 °C	–	–
Cc1ccc(NC(=O)c2cc([N+](=O)[O-])ccc2Cl)c(C)c1 [compound 26]	82%	30%	206 °C	–	–
COc1ccc(C(=O)Nc2ccc(Oc3ccc(C(F)(F)F)cn3)c(Cl)c2)cc1OC [compound 9]	96%	100%	152 to 154 °C	–	–
N#Cc1cc(NC(=O)c2cc([N+](=O)[O-])ccc2Cl)ccc1Oc1ncc(C(F)(F)F)cc1Cl [compound 122]	100%	100%	194 to 198 °C	–	–
O=C(Nc1ccc(Oc2ccc(C(F)(F)F)cc2Cl)cc1)c1cc([N+](=O)[O-])ccc1Cl [compound 89]	87%	99%	168 °C	–	–
Cc1cc(C23CC4CC(CC(C4)C2)C3)ccc1NS(=O)(=O)c1cc([N+](=O)[O-])ccc1C [compound 44]	93%	100%	241 °C	–	–
Nc1cc(NC(=O)c2cc([N+](=O)[O-])ccc2Cl)ccc1Oc1ncc(C(F)(F)F)cc1Cl [compound 121]	97%	100%	235 to 237 °C	–	–
O=C(Nc1cc(Cl)c(Oc2ncc(C(F)(F)F)cc2Cl)c(Cl)c1)c1cc([N+](=O)[O-])ccc1Cl [compound 112]	100%	100%	189 to 191 °C	–	–
N#Cc1ccc(Cl)c(C(=O)Nc2ccc(Oc3ncc(C(F)(F)F)cc3Cl)cc2)c1 [compound 86]	87%	29%	209 to 212 °C	–	–
Cc1cc(C23CC4CC(CC(C4)C2)C3)ccc1NC(=O)c1cc([N+](=O)[O-])ccc1C [compound 36]	81%	85%	198 °C	–	–
O=C(Nc1ccc(Oc2ncc(C(F)(F)F)cc2Cl)cc1)c1cc([N+](=O)[O-])ccc1Br [compound 99]	100%	89%	191 to 195 °C	–	–
O=C(Nc1ccc(Oc2ncc(C(F)(F)F)cc2Cl)c(Cl)c1)c1cc([N+](=O)[O-])ccc1Cl [compound 113]	96%	97%	222 to 225 °C	–	–

Compound	inhibition at 100 ppm [1]	inhibition at 100 ppm [2]	melting point	inhibition at 10 ppm ([1]; test compound 10 ppm)	inhibition at 10 ppm ([2]; test compound 10 ppm)
Cc1cc(C23CC4CC(CC(C4)C2)C3)ccc1NC(=O)c1ccc([N+](=O)[O-])cc1Cl [compound 55]	96%	100%	200 °C	–	–
O=C(Nc1ccc(Oc2ncc(C(F)(F)F)cc2Cl)c(-n2cccc2)c1)c1cc([N+](=O)[O-])ccc1Cl [Compound No. 127, N-(4-(3-chloro-5-trifluoromethyl-2-pyridyloxy)-3-(1-pyrrolyl)phenyl)-2-chloro-5-nitrobenzamide]	100%	100%	165 to 167 °C	–	–
CN(c1ccc(NC(=O)c2cc([N+](=O)[O-])ccc2Cl)cc1)c1ncc(C(F)(F)F)cc1Cl [compound 133]	99%	100%	212 to 216 °C	–	–
Cc1cc(C23CC4CC(CC(C4)C2)C3)ccc1NC(=O)c1cc([N+](=O)[O-])ccc1O [compound 56]	100%	100%	131 °C	–	–
Cc1ccc(NC(=O)c2ccc([N+](=O)[O-])cc2Cl)c(C)c1 [compound 73]	64%	28%	181 to 183 °C	–	–
O=C(Nc1ccc(/N=N/c2ccccc2)cc1)c1cc([N+](=O)[O-])ccc1Cl [compound 67]	99%	100%	187 °C	–	–
CN(C)c1cc(NC(=O)c2cc([N+](=O)[O-])ccc2Cl)ccc1Oc1ncc(C(F)(F)F)cc1Cl [compound 128]	96%	93%	208 to 213 °C	–	–
O=C(Nc1ccc(Oc2ncc(C(F)(F)F)cc2Cl)c(N2CCCC2)c1)c1cc([N+](=O)[O-])ccc1Cl [compound 130]	100%	99%	235 to 237 °C	–	–
O=C(Nc1ccc(Oc2ccc(C(F)(F)F)cn2)c(Cl)c1)c1cccc(C(F)(F)F)c1 [compound 7]	100%	100%	127 to 129 °C	–	–
O=C(Nc1ccc(CCOc2ncc(C(F)(F)F)cc2Cl)cc1)c1cc([N+](=O)[O-])ccc1Cl [compound 97]	77%	84%	131 to 134 °C	–	–
Cc1cc(NC(=O)c2cc([N+](=O)[O-])ccc2Cl)ccc1Oc1ncc(C(F)(F)F)cc1Cl [Compound No. 106, N-(4-(3-chloro-5-trifluoromethyl-2-pyridyloxy)-3-methylphenyl)-2-chloro-5-nitrobenzamide]	83%	96%	230 to 232 °C	–	–
O=C(Nc1ccc(Oc2ccc(C(F)(F)F)cn2)c(Cl)c1)c1ccc(C(F)(F)F)cc1 [compound 8]	–	–	154 to 155 °C	58%	67%
N#Cc1ccc(Cl)c(C(=O)Nc2ccc(Oc3ccccc3)cc2)c1 [compound 85]	91%	86%	143 °C	–	–
Cc1cc(NC(=O)c2cc([N+](=O)[O-])ccc2F)ccc1Oc1ncc(C(F)(F)F)cc1Cl [compound 119]	100%	99%	179 to 181 °C	–	–
O=C(Nc1ccc(C23CC4CC(CC(C4)C2)C3)cc1)c1cc([N+](=O)[O-])ccc1Cl [compound 21]	96%	89%	262 °C	–	–
O=C(NS(=O)(=O)c1ccc(NC(=O)c2cc([N+](=O)[O-])ccc2Cl)cc1)c1ccccc1 [compound 146]	62%	43%	235 to 237 °C	–	–
